Test system in one series: not given
Experiment: not given
The settings on record: 20° C.; cited from earlier work.
Broadly, the Aqueous solubility is the concentration that dissolves in the medium under given conditions. With Cd(OH)2, the Aqueous solubility is 18 µM.

On to Cu(OH)2, for which the Aqueous solubility is 0.17 µM.

Regarding Fe(OH)2, the Aqueous solubility was 5.8 µM.

Fe(OH)3: the Aqueous solubility is 0.0002 µM.

For Gd(OH)3, the Aqueous solubility was 0.52 µM.

On to Pb(OH)2, for which the Aqueous solubility is 6.7 µM.

The next series deals with fungal growth. As to the kind of experiment: Biocidal function: fungal growth on brushed bread slices. Type of series: cell-based, fungi. The settings on record: French bread slices brushed on all sides, 14 days, dark, 18-20° C. The source says: In this example the following solutions/materials were used: • 1. Deionized water • 2. Solution CuCl2.2H2O in deionized water, 571 ppm Cu • 3. Solution CuCl2.2H2O in deionized water, 1286 ppm Cu • 4. Cu containing sol of example 5 in Table 7a, 571 ppm Cu • 5. Cu containing sol of example 6 in Table 7a, 1286 ppm Cu
Slices of French bread from a local baker were used as substrates for fungal growth. The bread slices were as brushed on all sides with solutions 1-5. The bread slices on dinner plates were put in plastic bags (one slice on a plate to a bag), which were in a dark, closed room where the temperature varied between 18 and 20° C. over the day. After 14 days, the untreated bread slice was severely befouled and the slice seemed to be completely invaded by fungi.
As for `O.O.[Cl-].[Cl-].[Cu+2]` [Cu solution containing 1286 ppm Cu, CuCl2.2H2O], the “Fungal growth on treated bread slice” value is on record as “Only little fungal growth”.

Source of the values: patent US11679984B2, “Composite sols” (Prebona AB, priority 2016, dated 2023).
